The term IC50 denotes the concentration at which inhibition is half-maximal. Low readings indicate greater potency in that assay, high ones weaker potency in that assay. In general, EC50 refers to the concentration at which the effect is half-maximal. Lower therefore signals greater potency. In general, Emax refers to the maximal effect, on the per cent scale that the assay sets.

Entries after “also recorded” stand apart in the source; their conditions may differ.

The record followed here is US11485734B2, “Beta-carbolines as positive allosteric modulators of the human serotonin receptor 2C (5-HT2C)” (Northwestern University, priority 2018, dated 2022).

Test [1] has as its target T1, human serotonin receptor 2C (5-HT2c) (Homo sapiens, UniProt P28335).
T1 sequence (P28335 33-458): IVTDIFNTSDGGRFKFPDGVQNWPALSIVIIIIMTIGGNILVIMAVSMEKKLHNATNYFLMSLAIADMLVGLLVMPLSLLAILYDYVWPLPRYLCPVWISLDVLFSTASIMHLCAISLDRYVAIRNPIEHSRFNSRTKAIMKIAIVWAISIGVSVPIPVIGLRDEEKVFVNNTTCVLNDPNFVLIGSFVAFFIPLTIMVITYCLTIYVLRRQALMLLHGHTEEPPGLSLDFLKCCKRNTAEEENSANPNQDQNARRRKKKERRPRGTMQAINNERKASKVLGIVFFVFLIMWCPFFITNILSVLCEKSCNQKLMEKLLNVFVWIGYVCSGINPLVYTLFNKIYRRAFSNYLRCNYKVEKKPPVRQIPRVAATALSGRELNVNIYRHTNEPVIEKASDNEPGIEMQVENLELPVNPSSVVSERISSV
The test can be described thus: 2C agonist activity of selected compounds. It is filed as cell-based.

Test [2] concerns the target T1, human serotonin receptor 2C (5-HT2c). The test can be described thus: 2C antagonist activity of selected compounds. It is filed as cell-based.
In another test the target is 5-HT2a receptor (Homo sapiens, UniProt P28223). Description: 2A agonist activity of selected compounds. It is filed as cell-based.
In test [3] the test system is mice. Description: Amphetamine-induced increase in locomotor activity (LMA). Conditions: AJC-61 2 mg/kg, amphetamine 2.5 mg/kg, eight 15 minute intervals. It is filed as in vivo. The method, then: FIG. 1. […] The effect of AJC-61 (2 mg/kg) on amphetamine-induced (2.5 mg/kg) increase in locomotor activity in mice.
(§1) The ability of a test drug to block the increase in Locomotor Activity (LMA) produced by amphetamine or the glutamate receptor […], phencyclidine (PCP), has a high predictive value for the antipsychotic efficacy of the test drug for treating schizophrenia. […] As such, we tested the effect of AJC-61 on reducing LMA in mice that had been treated with amphetamine or PCP to increase LMA activity.

Test [4] relates to mice. The test can be described thus: PCP-induced increase in locomotor activity (LMA). It is filed as in vivo. Conditions: AJC-61 2 mg/kg, PCP 10 mg/kg, eight 15 minute intervals. The method, then: FIG. 2. […] The effect of AJC-61 (2 mg/kg) on PCP-induced (10 mg/kg) increase in locomotor activity in mice.
as §1

The subject of the next test is male C57BL/6J mice. The test can be described thus: Novel Object Recognition in PCP-treated mice. It is filed as in vivo. The conditions noted are these: AJC-61 2 mg/kg, PCP 10 mg/kg. The method, then: FIG. 3. Novel Object Recognition: Discrimination index (DI) for male C57BL/6J mice treated with Vehicle, PCP (10 mg/kg), and PCP+AJC-61 (2 mg/kg). Data are shown as mean±S.E.M. of exploration time (s) n=10 mice per group.
The Novel Object Recognition test in rodents is considered a valid model of spatial memory in man. […] Normal mice remember for ˜24 hours. The time to loss of the memory in aged mice can be as low as zero to less than 8 hours. As such, we tested the effect of AJC-61 on reducing the DI in mice that had been treated with PCP to reduce the DI.

The subject of test [5] is mice. The test can be described thus: Social Interaction in PCP-treated mice. The class given is in vivo. The conditions noted are these: AJC-61 2 mg/kg; PCP 10 mg/kg i.p. 7 days b.i.d.; 10-minute paradigm. The procedure:
FIG. 4. Social Interaction: Effect of Vehicle, PCP (10 mg/kg: i.p., 7 days: b.i.d.), and PCP+AJC-61 (2 mg/kg), on social behaviors (sniffling, following, and avoiding) and interaction with inanimate object (object exploration), in a 10-minute social interaction (SI) paradigm. Data were analyzed by one-way ANOVA comparing the effect of drug treatment on each behavior and are shown as mean±S.E.M. of time (s); n=10 pairs of mice per group.
A healthy mouse will vigorously explore a newly introduce mouse and retain the memory for that mouse for up to 24 hours. The loss of interest in exploring a novel mouse is considered a sign of negative symptoms.
PCP-treatment produces a deficit in social interaction which models negative symptoms in schizophrenia. These include lack of motivation, loss of interest in activities, diminished capacity for pleasure and spontaneous activity. We tested the effect of AJC-61 on Social Interaction in mice that had been treated with PCP, including a Social Behaviors that include sniffing, following, and avoiding and Object Exploration via interaction with an inanimate object.

The subject of test [6] is mice. Description: Porsolt Forced Swim Test (FST) in PCP-treated mice. The conditions noted are these: AJC-61 2 mg/kg, PCP 10 mg/kg i.p. 7 days b.i.d., 6-min FST. It is filed as in vivo. The method, then: FIG. 5. Porsolt Forced Swim Test (FST). Effect of Vehicle, PCP (10 mg/kg; i.p., 7 days; b.i.d.), and PCP+AJC-61 (2 mg/kg), in a 6-min Porsolt Forced Swim Test (FST).
The Porsolt Forced Swim Test (FST) is a gold standard test for antidepressant action. In the FST, normal mice become immobile after being required to swim in a tank and begin to float instead of struggling to get out of the water. […] As such, we tested whether AJC-61 could increase the swim time in a FST.

The test system of test [7] is mice. The test can be described thus: Marble Burying Task (MBT) in PCP-treated mice. The conditions noted are these: AJC-61 2 mg/kg; PCP 10 mg/kg i.p. 7 days b.i.d.; 30-minute MBT; listed as AJC-16. It is filed as in vivo. The procedure: FIG. 6. Marble Burying Task (MBT): Effect of Vehicle, PCP (10 mg/kg; i.p., 7 days; b.i.d.), and PCP+AJC-61 (2 mg/kg) in a 30-minute Marble Burying Task (MBT) paradigm.
(§2) Marble Burying (MB) and extent of shredding a standard type of rodent bedding (i.e., Nestlet Shredding) are both proven methods for assessing drug efficacy to treat obsessive-compulsive disorder and Tourette's syndrome. As such, we tested the effect on AJC-61 on Marble Burying and Nestlet Shredding.

Test [8] relates to mice. Description: Nestlet Shredding (NS) in PCP-treated mice. It is filed as in vivo. Conditions: AJC-61 2 mg/kg; PCP 10 mg/kg i.p. 7 days b.i.d.; 30-minute NS; listed as AJC-16. The method, then: FIG. 7. Nestlet Shredding (NS): Effect of Vehicle, PCP (10 mg/kg; i.p., 7 days; b.i.d.), and PCP+AJC-61 (2 mg/kg) in a 30-minute Nestlet Shredding (NS) paradigm.
as §2

In the next test the test system is 22-month old mice. Description: Novel Object Recognition in aged mice. The class given is in vivo. Conditions: AJC-61 2 mg/kg. The procedure:
FIG. 8. Novel Object Recognition: Effect on discrimination index (DI) of Vehicle and AJC-61 (2 mg/kg) on 2.5 month old mice and 22-month old mice Data are shown as mean±S.E.M. of exploration time (s): n=14 pairs of mice per group.
Aged mice show a decline in memory function beginning around 13-15 month of age. Drugs which enhance memory can be assessed using the Novel Object Recognition test and determination of the Discrimination Index (DI) as discussed above. As such, we tested whether AJC-61 could improve the DI for aged mice (i.e., 22-month old mice) versus young mice (i.e., 2.5 month old mice).

5-HT2a receptor, sequence (P28223 whole entry): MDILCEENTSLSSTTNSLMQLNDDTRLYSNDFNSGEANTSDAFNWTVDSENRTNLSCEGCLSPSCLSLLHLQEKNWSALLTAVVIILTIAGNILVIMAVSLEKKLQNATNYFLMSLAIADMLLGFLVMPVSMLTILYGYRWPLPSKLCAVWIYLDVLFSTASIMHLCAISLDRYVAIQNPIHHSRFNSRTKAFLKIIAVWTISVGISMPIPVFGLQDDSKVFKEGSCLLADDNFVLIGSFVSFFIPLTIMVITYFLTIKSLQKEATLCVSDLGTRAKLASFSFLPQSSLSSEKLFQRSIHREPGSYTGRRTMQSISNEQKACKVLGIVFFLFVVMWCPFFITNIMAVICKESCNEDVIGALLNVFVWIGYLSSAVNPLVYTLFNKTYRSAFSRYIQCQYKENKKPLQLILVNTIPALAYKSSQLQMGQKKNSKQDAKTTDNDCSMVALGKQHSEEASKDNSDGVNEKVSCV

On to `Oc1ccc2[nH]c3c(-c4cncnc4)nccc3c2c1` [AJC-61, 1-(pyrimidin-5-yl)-9H-pyrido[3,4-b]indol-6-61], for which the 2C agonist result in [1] was “inactive”. For the same compound, the 50% inhibitory concentration (IC50) in test [2] is above 10000 nM. Besides, at 5-HT2a receptor, the 2A agonist result is “inactive”. Moreover, in the test on mice [3], the “Effect on amphetamine-induced increase in locomotor activity” value is recorded as “blocked amphetamine-induced increase in locomotor activity; also recorded: blocked the amphetamine-induced increase in LMA”. In addition, the “Effect on PCP-induced increase in locomotor activity” value with mice [4] is given as “blocked PCP-induced increase in locomotor activity; also recorded: blocked the PCP-induced increase in LAM”. In addition, the “Discrimination index (DI), PCP+AJC-61 versus PCP” value in the test with male C57BL/6J mice is “significant increase in DI”. In the test on mice [5], the “Object exploration (inanimate object)” value is “no significant change”; the “Social interaction: avoiding, PCP+AJC-61 versus PCP” value is on record as “significant decrease in avoiding”; the “Social interaction: following” value was “no significant change”; the “Social interaction: sniffing, PCP+AJC-61 versus PCP” value was “significant increase in sniffing”. The “Immobility time, PCP+AJC-61 versus PCP” value with mice [6] is listed as “significantly decreased the immobility time”. For the same compound, in the test with mice [6] (listed as AJC-16), the “Immobility time, PCP+AJC-61 versus PCP” value is recorded as “Significant decrease in immobility time”. The “Number of marbles buried, PCP+AJC-61 versus PCP” value in the test on mice [7] is “significant decrease in the number of marbles buried”. The “Percent nestlet shredded, PCP+AJC-61 versus PCP” value with mice [8] is “significant decrease in the percent nestlet shredded”. Moreover, the “Discrimination index (DI), AJC-61 versus Vehicle” value in the test on 22-month old mice is given as “significant increase in the DI”.

As for `Fc1ccc2[nH]c3c(c2c1)CCNC3c1cncnc1` (stereo not drawn) [MJO-01-31], the results for the EC50 (in [1]; on 5-HT2a receptor) were 10.1 nM and 54.6 nM, respectively. For the same compound, the Emax in test [1] worked out at 101%; at 5-HT2a receptor it was 95%.

`Oc1ccc2[nH]c3c(c2c1)CCNC3c1ccccc1O` (stereo not drawn) [MJO-01-34]: in test [1], the half-maximal effective concentration (EC50) came out at 85.9 nM and the Emax turned out to be 103%. On 5-HT2a receptor, this compound had a concentration giving a half-maximal response (EC50) of 106 nM and an Emax of 27%.

Take `Clc1ccc2[nH]c3c(c2c1)CCNC3CCc1ccccc1` (stereo not drawn) [MJO-01-46]: in test [1], a half-maximal effect (EC50) was put at 5.37 nM and the “Emax (2C agonist)” value was found to be 98%. Further, on 5-HT2a receptor, the EC50 was found to be 11.3 nM and the “Emax (2A agonist)” value was found to be 96%.
